Assay results from patent US11684607B2, “Secnidazole for use in the treatment of bacterial vaginosis” (priority 2014, dated 2023).

What was measured:
[1] = Safety evaluation (adverse events, vital signs, ECGs, laboratory tests) after single 1 g or 2 g dose of SYM-1219; assay type: in vivo, human; conditions: single 1 g or 2 g oral dose; healthy female subjects
Experimental: Methods: 28 healthy female subjects (14/group) ages 18-65 years were randomized to receive a single oral dose of either 1 or 2 grams of SYM-1219, mixed into 4 oz. of applesauce. […] Safety was evaluated by recording adverse events, vital signs, ECGs and laboratory tests.

[2] = Safety evaluation of SYM-1219 alone or in combination with EE2/NET; assay type: in vivo, human; conditions: 2 g
Experimental: Methods: Fifty-four (54) healthy female subjects, ages 18-65, received EE2/NET alone and in combination, where SYM-1219+EE2/NET were co-administered on Day 1 (Group B1; N=27) or SYM-1219 on Day 1 and EE2/NET on Day 2 (Group B2; N=27). Serial blood samples were drawn to measure plasma concentrations of EE2/NET. […] Safety was evaluated by recording of adverse events, vital signs, ECGs and standard laboratory tests.

[3] = Single oral dose pharmacokinetics (plasma and urine) of SYM-1219 microgranule formulation in fasted healthy female subjects; conditions: for AUC(0-t): AUC0-t; for CL renal: CLr
Experimental: A non-compartmental analysis was performed and the PK parameters for each treatment group are reported.

[4] = female, human, plasma, po, 1 g, Geometric Mean, 1 gram single oral dose, fasted, N = 14
[5] = female, human, plasma, po, 1 g, Mean, 1 gram single oral dose, fasted, N = 14
[6] = female, human, plasma, po, 1 g, Median, 1 gram single oral dose, fasted, N = 14
[7] = plasma, 1 gram single oral dose, fasted, N = 14
[8] = plasma, 2 grams single oral dose, fasted, N = 14
[9] = urine, 1 gram single oral dose, fasted, N = 14
[10] = urine, 2 grams single oral dose, fasted, N = 14

Question: What does the source list for `Cc1ncc([N+](=O)[O-])n1CC(C)O` (stereo not shown) [SYM-1219, 1-(2-hydroxypropyl)-2-methyl-5-nitromidazole]?
Answer: changes in vital signs, electrocardiogram (ECG) or laboratory parameters [1]: no significant changes; safety and tolerability [1]: safe and well-tolerated; severity and outcome of all adverse events [1]: mild and resolved without sequelae; changes in vital signs, ECG or laboratory parameters [2]: no significant changes; safety and tolerability [2]: safe and well-tolerated; intersubject variability for Cmax and AUC ([3]; 1 g and 2 g doses): < 20 % CV; renal clearance as percentage of the glomerular filtration rate typically found in healthy subjects ([3]; 1 g and 2 g doses): < 5%; Urinary excretion of unchanged SYM-1219, share of the administered dose ([3]; 1 g dose): 13.6%; Urinary excretion of unchanged SYM-1219, share of the administered dose ([3]; 2 g dose): 15.3%; time by which maximum concentrations were achieved ([3]; both dose groups (1 g and 2 g)): approximately 4 hrs.; dose proportionality of pharmacokinetics ([3]; comparing the 1 and 2 g doses): dose proportional; AUC(0-inf) ([3]; female, human, plasma, oral, 1 g, Exposure estimate (AUCinf)): 619 µg·h/mL; AUC(0-inf) ([3]; female, human, plasma, oral, 2 g, Exposure estimate (AUCinf)): 1330 µg·h/mL; Tmax ([3]; female, human, plasma, po, 1 g): 3.06 h; AUC(0-t) [3, 4]: 603 µg·h/mL; AUC(0-t) [3, 5]: 610 µg·h/mL; AUC(0-t) [3, 6]: 587 µg·h/mL; Cmax [3, 4]: 22400 ng/mL; Cmax [3, 5]: 22600 ng/mL; Cmax [3, 6]: 22800 ng/mL; AUC(0-inf) ([3]; female, human, plasma, po, 1 gram, AUC0-∞, Geometric Mean, 1 gram single oral dose, fasted, N = 14): 612 µg·h/mL; AUC(0-inf) ([3]; female, human, plasma, po, 1 gram, AUC0-∞, Mean, 1 gram single oral dose, fasted, N = 14): 619 µg·h/mL; AUC(0-inf) ([3]; female, human, plasma, po, 1 gram, AUC0-∞, Median, 1 gram single oral dose, fasted, N = 14): 595 µg·h/mL; CL renal ([3]; female, human, urine, po, 1 gram, Geometric Mean, 1 gram single oral dose, fasted, N = 14): 3.65 mL/min; CL renal ([3]; female, human, urine, po, 1 gram, Mean, 1 gram single oral dose, fasted, N = 14): 3.74 mL/min; Mean maximum concentration ([3]; plasma, 1 g dose): 22.6 µg/mL; t1/2, Mean [3, 7]: 17.05 h; t1/2, Median [3, 7]: 16.79 h; λz, Mean [3, 7]: 0.04099 h⁻¹; λz, Median [3, 7]: 0.04129 h⁻¹; Mean maximum concentration ([3]; plasma, 2 g dose): 45.4 µg/mL; AUC0-t, Geometric Mean [3, 8]: 1305.35 µg·h/mL; AUC0-t, Mean [3, 8]: 1322.40 µg·h/mL; AUC0-t, Median [3, 8]: 1290.41 µg·h/mL; AUC0-∞, Geometric Mean [3, 8]: 1314.74 µg·h/mL; AUC0-∞, Mean [3, 8]: 1331.63 µg·h/mL; AUC0-∞, Median [3, 8]: 1299.10 µg·h/mL; Cmax, Geometric Mean [3, 8]: 44840 ng/mL; Cmax, Mean [3, 8]: 45430 ng/mL; Cmax, Median [3, 8]: 45050 ng/mL; Tmax, Median [3, 8]: 4.000 h; t1/2, Mean [3, 8]: 16.86 h; t1/2, Median [3, 8]: 17.13 h; λz, Mean [3, 8]: 0.0422 h⁻¹; λz, Median [3, 8]: 0.04047 h⁻¹; % FE, Geometric Mean [3, 9]: 13.403%; % FE, Mean [3, 9]: 13.602%; % FE, Median [3, 9]: 13.981%; Ae0-168, Geometric Mean [3, 9]: 0.134 g; Ae0-168, Mean [3, 9]: 0.136 g; Ae0-168, Median [3, 9]: 0.140 g; CLr, Median [3, 9]: 3.965 mL/min; % FE, Geometric Mean [3, 10]: 14.991%; % FE, Mean [3, 10]: 15.300%; % FE, Median [3, 10]: 14.943%; Ae0-168, Geometric Mean [3, 10]: 0.300 g; Ae0-168, Mean [3, 10]: 0.306 g; Ae0-168, Median [3, 10]: 0.299 g; CLr, Geometric Mean [3, 10]: 3.801 mL/min; CLr, Mean [3, 10]: 3.935 mL/min; CLr, Median [3, 10]: 3.962 mL/min
